According to patent US4402948A, “Steroid glycoside compounds and methods of use” (Nippon Shinyaku Co., Ltd., priority 1980, dated 1983):
Where two headings read alike, the source gives them in different places.

Key:
[1] = Acute toxicity (LD50, Litchfield-Wilcoxon method); conditions: mouse, in vivo, male mice
Procedure: LD50 values of oxidized derivatives of steryl-β-D-glucoside and acetyl derivatives thereof were calculated by Litchfield-Wilcoxon method using male mice.

[2] = test system: hemorrage in mouse's lung; experiment: Capillary stabilizing effects: inhibiting hemorrage in mouse's lung caused by pressure reduction; assay type: in vivo; conditions: pressure reduction to 50±0.5 mmHg/15 sec., score method; for ED50: Mus musculus, oral administration
Procedure: C. Capillary stabilizing effects:
Effects of inhibiting hemorrage in mouse's lung:
Degree of hemorrage in mouse's lung caused by pressure reduction to 50±0.5 mmHg/15 sec. was determined by a method of G. J. Mojovski, et al. [J. Pharm. Exp. Therap., 80, 1, (1944)] (score method). From the inhibition rate calculated as compared with untreated control group, ED50 of the sample was calculated.

[3] = test system: bleeding at the end of mouse's tail; experiment: Hemostatic effects: influences on bleeding at the end of mouse's tail; assay type: in vivo; conditions: vs untreated control
Procedure: Influences on bleeding at the end of mouse's tail:
Groups each comprising 10 male mice were employed. According to a method of Motohashi, et al. [Journal of Tokyo Jikei-kai Medical College, 75 (5) (1959)], the end of tail (1 cm) of each mouse was cut out with a sharp surgical knife and the blood threading from the wound into water was observed. A time required until the bleeding stopped completely was measured and rate of readuction of the bleeding time as compared with that of untreated control group was calculated.

[4] = ip, intraperitoneal administration, read-out: LD50 Intraperitoneal administration
[5] = oral administration, read-out: LD50 Oral administration

Work on CC(=O)OCC1OC(OC2CCC3(C)C(=CC(=O)C4C3CCC3(C)C(C(C)CCCC(C)C)CCC43)C2)C(OC(C)=O)C(OC(C)=O)C1OC(C)=O [Compound 5, (7-Ketocholesteryl)-2,3,4,6-tetra-0-acetyl-β-D-glucopyranoside] yielded an LD50 [1, 4] of over 15000 mg/kg and an LD50 [1, 5] of over 12000 mg/kg.
In the case of CCC(CCC(C)C1CCC2C3C(=O)C=C4CC(OC5OC(COC(C)=O)C(OC(C)=O)C(OC(C)=O)C5OC(C)=O)CCC4(C)C3CCC12C)C(C)C (centres unmarked) [Compound 6], the ED50 [2] was 62 mg/kg and the “Reduction rate (of bleeding time)” value ([3]; 0.1 mg/Kg i.p.) was 22%.
For CC(C)CCCC(C)C1CCC2C3C(=O)C=C4CC(OC5OC(CO)C(O)C(O)C5O)CCC4(C)C3CCC12C [Compound 8, (7-Ketocholesteryl)-β-D-glucopyranoside], the LD50 [1, 4] was over 15000 mg/kg, the LD50 [1, 5] was over 12000 mg/kg and the “Reduction rate (of bleeding time)” value ([3]; 0.1 mg/Kg i.p.) was 36%.
CCC(C=CC(C)C1CCC2C3C(=O)C=C4CC(OC5OC(CO)C(O)C(O)C5O)CCC4(C)C3CCC12C)C(C)C (centres unmarked) [Compound 10] gave an ED50 [2] of 43 mg/kg.
For CC(=O)OCC1OC(OC2CCC3(C)C(=CC(O)C4C3CCC3(C)C(C(C)CCCC(C)C)CCC43)C2)C(OC(C)=O)C(OC(C)=O)C1OC(C)=O [Compound 11, (7-hydroxycholesteryl)-2,3,4,6-tetra-0-acetyl-β-D-glucopyranoside], the “Reduction rate (of bleeding time)” value ([3]; 0.1 mg/Kg i.p.) was 18%.
Molecule CCC(CCC(C)C1CCC2C3C(O)C=C4CC(OC5OC(COC(C)=O)C(OC(C)=O)C(OC(C)=O)C5OC(C)=O)CCC4(C)C3CCC12C)C(C)C (centres unmarked) [Compound 12] has an LD50 [1, 4] of over 15000 mg/kg and an LD50 [1, 5] of over 12000 mg/kg.
For CC(C)CCCC(C)C1CCC2C3C(O)C=C4CC(OC5OC(CO)C(O)C(O)C5O)CCC4(C)C3CCC12C [Compound 14, (7-Hydroxycholesteryl)-β-D-glucopyranoside], the ED50 [2] was 38 mg/kg.
For CCC(C=CC(C)C1CCC2C3C(O)C=C4CC(OC5OC(CO)C(O)C(O)C5O)CCC4(C)C3CCC12C)C(C)C (centres unmarked) [Compound 16], the LD50 [1, 4] was over 15000 mg/kg, the LD50 [1, 5] was over 12000 mg/kg and the “Reduction rate (of bleeding time)” value ([3]; 0.1 mg/Kg i.p.) was 23%.
For CN1C2=CC(=O)/C(=N\NC(N)=O)C=C2CC1S(=O)(=O)[O-].[Na+] (centres unmarked) [Sodium carbazochromesulfonate, reference compound], the ED50 oral administration [2] was over 400 mg/kg and the “Reduction rate (of bleeding time)” value ([3]; 10.0 mg/Kg i.p.) was 21%.
